From PubChem BioAssay (NCI)
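Where inhibition never reached the appropriate level, the endpoint shown equals the highest concentration tested. Otherwise, values were interpolated linearly from a five-concentration, 48-hour dose response in 96-well plates. The concentration for 50% growth inhibition is given as GI50. TGI marks complete inhibition of growth.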

Legend:
Experiment in all cases: NCI anticancer screen, dose series, 48 h
SW-620 colon = test system: SW-620 colon
OVCAR-5 ovarian = test system: OVCAR-5 ovarian
HCT-15 colon = test system: HCT-15 colon
RPMI-8226 leukemia = test system: RPMI-8226 leukemia
HS 578T breast = test system: HS 578T breast
CAKI-1 renal = test system: CAKI-1 renal
NCI/ADR-RES ovarian = test system: NCI/ADR-RES ovarian
T-47D breast = test system: T-47D breast
SF-268 CNS = test system: SF-268 CNS
LOX IMVI melanoma = test system: LOX IMVI melanoma
MCF7 breast = test system: MCF7 breast
MDA-MB-231 breast = test system: MDA-MB-231 breast
A549 NSCLC = test system: A549 NSCLC
KM12 colon = test system: KM12 colon
PC-3 prostate = test system: PC-3 prostate
NCI-H460 lung = test system: NCI-H460 lung
HCT-116 colon = test system: HCT-116 colon
HL-60(TB) leukemia = test system: HL-60(TB) leukemia
DU-145 prostate = test system: DU-145 prostate
MALME-3M melanoma = test system: MALME-3M melanoma
MDA-MB-435 = test system: MDA-MB-435
HT29 colon = test system: HT29 colon
SR leukemia = test system: SR leukemia
HOP-62 NSCLC = test system: HOP-62 NSCLC
SF-539 CNS = test system: SF-539 CNS
IGROV1 ovarian = test system: IGROV1 ovarian
SNB-19 CNS = test system: SNB-19 CNS
OVCAR-3 ovarian = test system: OVCAR-3 ovarian
MOLT-4 leukemia = test system: MOLT-4 leukemia
COLO 205 colon = test system: COLO 205 colon
M14 melanoma = test system: M14 melanoma
786-0 renal = test system: 786-0 renal
K-562 leukemia = test system: K-562 leukemia
EKVX NSCLC = test system: EKVX NSCLC
NCI-H522 lung = test system: NCI-H522 lung
NCI-H23 lung = test system: NCI-H23 lung
RXF 393 renal = test system: RXF 393 renal
OVCAR-4 ovarian = test system: OVCAR-4 ovarian
CCRF-CEM leukemia = test system: CCRF-CEM leukemia
UACC-62 melanoma = test system: UACC-62 melanoma
SK-MEL-28 melanoma = test system: SK-MEL-28 melanoma
SK-MEL-2 melanoma = test system: SK-MEL-2 melanoma
UACC-257 melanoma = test system: UACC-257 melanoma
ACHN renal = test system: ACHN renal
SF-295 CNS = test system: SF-295 CNS
SNB-75 CNS = test system: SNB-75 CNS
A498 renal = test system: A498 renal
UO-31 renal = test system: UO-31 renal
TK-10 renal = test system: TK-10 renal
SN12C renal = test system: SN12C renal
BT-549 breast = test system: BT-549 breast
SK-OV-3 ovarian = test system: SK-OV-3 ovarian
OVCAR-8 ovarian = test system: OVCAR-8 ovarian
SK-MEL-5 melanoma = test system: SK-MEL-5 melanoma
NCI-H226 lung = test system: NCI-H226 lung
U251 CNS = test system: U251 CNS
HCC-2998 colon = test system: HCC-2998 colon

In the case of `CCCCOc1ccc(S(=O)(=O)N2CCN(c3nc(C)cc(N4CCOCC4)n3)CC2)cc1`, the GI50 (SW-620 colon) is reported as 2330 nM, the TGI (SW-620 colon) is reported as over 100000 nM and the GI50 (OVCAR-5 ovarian) is reported as over 100000 nM. The TGI (OVCAR-5 ovarian) was over 100000 nM, the GI50 (HCT-15 colon) was 2090 nM and the TGI (HCT-15 colon) was over 100000 nM. It also gave a GI50 (RPMI-8226 leukemia) of 2640 nM, a TGI (RPMI-8226 leukemia) of over 100000 nM and a GI50 (HS 578T breast) of over 100000 nM. The TGI (HS 578T breast) was over 100000 nM, the GI50 (CAKI-1 renal) was 2110 nM and the TGI (CAKI-1 renal) was over 100000 nM. For the same compound, the GI50 (NCI/ADR-RES ovarian) was 2450 nM, the TGI (NCI/ADR-RES ovarian) was over 100000 nM and the GI50 (T-47D breast) was over 100000 nM. For the same compound, the TGI (T-47D breast) was over 100000 nM, the GI50 (SF-268 CNS) was 2320 nM and the TGI (SF-268 CNS) was over 100000 nM. The GI50 (LOX IMVI melanoma) was 294 nM, the TGI (LOX IMVI melanoma) was 942 nM and the GI50 (MCF7 breast) was over 100000 nM. For the same compound, the TGI (MCF7 breast) was over 100000 nM, the TGI (MDA-MB-231 breast) was over 100000 nM and the GI50 (A549 NSCLC) was 3850 nM. It also gave a TGI (A549 NSCLC) of over 100000 nM, a GI50 (KM12 colon) of 3120 nM and a TGI (KM12 colon) of over 100000 nM. For the same compound, the GI50 (PC-3 prostate) was 4540 nM, the TGI (PC-3 prostate) was over 100000 nM and the GI50 (NCI-H460 lung) was 1670 nM. The TGI (NCI-H460 lung) was over 100000 nM, the GI50 (HCT-116 colon) was 1440 nM and the TGI (HCT-116 colon) was over 100000 nM. It also gave a GI50 (HL-60(TB) leukemia) of 420 nM, a TGI (HL-60(TB) leukemia) of over 100000 nM and a GI50 (DU-145 prostate) of 1010 nM. The TGI (DU-145 prostate) was over 100000 nM, the GI50 (MALME-3M melanoma) was over 100000 nM and the TGI (MALME-3M melanoma) was over 100000 nM. It also gave a GI50 (MDA-MB-435) of 1450 nM, a TGI (MDA-MB-435) of over 100000 nM and a GI50 (HT29 colon) of 888 nM. The TGI (HT29 colon) was 6230 nM, the GI50 (SR leukemia) was 5460 nM and the TGI (SR leukemia) was over 100000 nM. It also gave a GI50 (HOP-62 NSCLC) of over 100000 nM, a TGI (HOP-62 NSCLC) of over 100000 nM and a GI50 (SF-539 CNS) of over 100000 nM. For the same compound, the TGI (SF-539 CNS) was over 100000 nM, the GI50 (IGROV1 ovarian) was 1090 nM and the TGI (IGROV1 ovarian) was over 100000 nM. The GI50 (SNB-19 CNS) was over 100000 nM, the TGI (SNB-19 CNS) was over 100000 nM and the GI50 (OVCAR-3 ovarian) was over 100000 nM. For the same compound, the TGI (OVCAR-3 ovarian) was over 100000 nM, the GI50 (MOLT-4 leukemia) was 2270 nM and the TGI (MOLT-4 leukemia) was over 100000 nM.
For `O=c1c2cc(-c3ccc(F)cc3F)ccc2n(O)c(=O)n1-c1cccc(C(F)(F)F)c1`, the GI50 (COLO 205 colon) was 1940 nM, the TGI (COLO 205 colon) was 4050 nM and the GI50 (SW-620 colon) was 2050 nM. For the same compound, the TGI (SW-620 colon) was 10500 nM, the GI50 (M14 melanoma) was 773 nM and the TGI (M14 melanoma) was 3470 nM. It also gave a GI50 (786-0 renal) of 2150 nM, a TGI (786-0 renal) of 5660 nM and a GI50 (OVCAR-5 ovarian) of 3380 nM. For the same compound, the TGI (OVCAR-5 ovarian) was 92900 nM, the GI50 (K-562 leukemia) was 424 nM and the TGI (K-562 leukemia) was 35000 nM. It also gave a GI50 (HCT-15 colon) of 435 nM, a TGI (HCT-15 colon) of 2280 nM and a GI50 (EKVX NSCLC) of 2350 nM. It also gave a TGI (EKVX NSCLC) of 8470 nM, a GI50 (RPMI-8226 leukemia) of 1020 nM and a TGI (RPMI-8226 leukemia) of 5850 nM. For the same compound, the GI50 (NCI-H522 lung) was 369 nM, the TGI (NCI-H522 lung) was 2550 nM and the GI50 (HS 578T breast) was 837 nM. For the same compound, the TGI (HS 578T breast) was 4420 nM, the GI50 (NCI-H23 lung) was 722 nM and the TGI (NCI-H23 lung) was 5300 nM. It also gave a GI50 (RXF 393 renal) of 1050 nM, a TGI (RXF 393 renal) of 3140 nM and a GI50 (OVCAR-4 ovarian) of 2190 nM. The TGI (OVCAR-4 ovarian) was over 100000 nM, the GI50 (CAKI-1 renal) was 1610 nM and the TGI (CAKI-1 renal) was 6020 nM. It also gave a GI50 (NCI/ADR-RES ovarian) of 1170 nM, a TGI (NCI/ADR-RES ovarian) of 10500 nM and a GI50 (T-47D breast) of 1490 nM. For the same compound, the TGI (T-47D breast) was 5760 nM, the GI50 (SF-268 CNS) was 1750 nM and the TGI (SF-268 CNS) was 15500 nM. For the same compound, the GI50 (CCRF-CEM leukemia) was 3120 nM, the TGI (CCRF-CEM leukemia) was over 100000 nM and the GI50 (UACC-62 melanoma) was 323 nM. For the same compound, the TGI (UACC-62 melanoma) was 1310 nM, the GI50 (SK-MEL-28 melanoma) was 1260 nM and the TGI (SK-MEL-28 melanoma) was 10000 nM. The GI50 (SK-MEL-2 melanoma) was 534 nM, the TGI (SK-MEL-2 melanoma) was 2290 nM and the GI50 (UACC-257 melanoma) was 1010 nM. For the same compound, the TGI (UACC-257 melanoma) was 4480 nM, the GI50 (ACHN renal) was 2080 nM and the TGI (ACHN renal) was 10400 nM. For the same compound, the GI50 (SF-295 CNS) was 1650 nM, the TGI (SF-295 CNS) was 3450 nM and the GI50 (LOX IMVI melanoma) was 1220 nM. The TGI (LOX IMVI melanoma) was 2940 nM, the GI50 (MCF7 breast) was 1610 nM and the TGI (MCF7 breast) was 7120 nM. It also gave a GI50 (SNB-75 CNS) of 1510 nM, a TGI (SNB-75 CNS) of 6450 nM and a GI50 (MDA-MB-231 breast) of 1590 nM. For the same compound, the TGI (MDA-MB-231 breast) was 6360 nM, the GI50 (A549 NSCLC) was 2950 nM and the TGI (A549 NSCLC) was 20100 nM. It also gave a GI50 (A498 renal) of 347 nM, a TGI (A498 renal) of 1260 nM and a GI50 (UO-31 renal) of 2230 nM. For the same compound, the TGI (UO-31 renal) was 9300 nM, the GI50 (TK-10 renal) was 4190 nM and the TGI (TK-10 renal) was 9170 nM. For the same compound, the GI50 (KM12 colon) was 2160 nM, the TGI (KM12 colon) was 7070 nM and the GI50 (PC-3 prostate) was 1800 nM. For the same compound, the TGI (PC-3 prostate) was 6950 nM, the GI50 (NCI-H460 lung) was 668 nM and the TGI (NCI-H460 lung) was 5230 nM. It also gave a GI50 (HCT-116 colon) of 420 nM, a TGI (HCT-116 colon) of 1610 nM and a GI50 (SN12C renal) of 683 nM. It also gave a TGI (SN12C renal) of 5410 nM, a GI50 (BT-549 breast) of 437 nM and a TGI (BT-549 breast) of 1580 nM. The GI50 (DU-145 prostate) was 2480 nM, the TGI (DU-145 prostate) was 49100 nM and the GI50 (MALME-3M melanoma) was 1510 nM. The TGI (MALME-3M melanoma) was 5390 nM, the GI50 (MDA-MB-435) was 1560 nM and the TGI (MDA-MB-435) was 7670 nM. For the same compound, the GI50 (SK-OV-3 ovarian) was 1130 nM, the TGI (SK-OV-3 ovarian) was 3880 nM and the GI50 (OVCAR-8 ovarian) was 1080 nM. It also gave a TGI (OVCAR-8 ovarian) of 8890 nM, a GI50 (HT29 colon) of 4300 nM and a TGI (HT29 colon) of 26800 nM. The GI50 (SR leukemia) was 259 nM, the TGI (SR leukemia) was 1880 nM and the GI50 (HOP-62 NSCLC) was 1800 nM. The TGI (HOP-62 NSCLC) was 4340 nM, the GI50 (SK-MEL-5 melanoma) was 263 nM and the TGI (SK-MEL-5 melanoma) was 708 nM. For the same compound, the GI50 (SF-539 CNS) was 1470 nM, the TGI (SF-539 CNS) was 7940 nM and the GI50 (IGROV1 ovarian) was 2030 nM. For the same compound, the TGI (IGROV1 ovarian) was 25400 nM, the GI50 (SNB-19 CNS) was 682 nM and the TGI (SNB-19 CNS) was over 100000 nM. For the same compound, the GI50 (NCI-H226 lung) was 1010 nM, the TGI (NCI-H226 lung) was 3640 nM and the GI50 (MOLT-4 leukemia) was 419 nM. It also gave a TGI (MOLT-4 leukemia) of 2130 nM, a GI50 (U251 CNS) of 1860 nM and a TGI (U251 CNS) of 15700 nM. For the same compound, the GI50 (HCC-2998 colon) was 2510 nM and the TGI (HCC-2998 colon) was 9900 nM.
